# Test results: paper PMC5005338, “Escherichia coli Type III Secretion System 2 ATPase EivC Is Involved in the Motility and Virulence of Avian Pathogenic Escherichia coli” (Frontiers in Microbiology, 2016)
# Target: EivC (His-EivC) (Escherichia coli, UniProt A0A160EFI3)
# Conditions: 30 min assay; His-tagged protein
# EivC (His-EivC), sequence (A0A160EFI3 entry or part of it): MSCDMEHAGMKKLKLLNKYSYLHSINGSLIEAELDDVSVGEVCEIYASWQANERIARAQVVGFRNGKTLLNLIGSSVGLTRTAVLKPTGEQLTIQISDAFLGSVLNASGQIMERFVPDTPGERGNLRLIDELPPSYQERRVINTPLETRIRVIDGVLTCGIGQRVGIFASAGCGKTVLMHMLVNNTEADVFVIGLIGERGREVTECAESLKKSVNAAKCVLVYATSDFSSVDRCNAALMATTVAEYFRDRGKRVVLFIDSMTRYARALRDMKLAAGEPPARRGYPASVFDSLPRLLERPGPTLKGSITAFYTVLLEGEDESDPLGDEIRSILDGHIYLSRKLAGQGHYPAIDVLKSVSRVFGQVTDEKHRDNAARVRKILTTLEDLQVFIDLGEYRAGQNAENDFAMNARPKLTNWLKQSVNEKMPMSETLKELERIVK
structure (smiles),measurement,value
Nc1ncnc2c1ncn2[C@@H]1O[C@H](COP(=O)(O)OP(=O)(O)OP(=O)(O)O)[C@@H](O)[C@H]1O [ATP],"phosphate release, malachite green ATPase assay kit",a His-EivC fusion protein was purified and tested for its ability to hydrolyze ATP
